Experimental data from patent US20250171404A1, “PCNA INHIBITORS AND USES THEREOF” (CITY OF HOPE, priority 2022, published 2025).

Assays:
SH-SY5Y and SK-N-BE(2)c = assay: Cell cycle analysis (PI, flow cytometry), cancer cells; assay type: cell-based, human; conditions: 500 nM
Protocol: FIGS. 3A-3D. Therapeutic properties of AOH1996. FIG. 3A: Normal cells (7SM0032) or cancer cells (SH-SY5Y and SK-N-BE(2)c) cells were fixed, stained with PI, and analyzed by flow cytometry following treatment with 500 nM AOH1996 for the indicated time. FIG. 3B: SK-N-DZ neuroblastoma cells and nonmalignant 7SM0032 stem cells were incubated with 500 nM AOH1996 for 24 h. Then, after being fixed on slides, cell apoptosis were analyzed by a TUNEL assay. Left: TMR fluorophore attached to the free ends of DNA indicates cells undergoing apoptosis. DAPI stained nuclei also shown. Right: Average abundance ±S.D. of apoptotic 7SM0032 (black histogram) and SK-N-DZ (grey histogram) cells relative to the total number of cells are shown in 5 randomly selected fields. FIG. 3C: Human SK-N-DZ neuroblastoma cells were treated with or without the indicated concentrations of cisplatin in the absence or presence of 500 nM of AOH1996 for 18 hours. […] The relative number of colonies determined in triplicates for each treatment condition were averaged and graphed ±SDs (*, P<0.01). […] Cell growth was measured as the percentage of cell confluence by imaging every 6 h for a total of 48 h.
Cell Cycle Analysis. […] PI fluorescence intensity of the cells was measured by flow cytometry and the data was analyzed using the FlowJo program.

[1] = Oral pharmacokinetic study in mice; assay type: in vivo, ES1^e/SCID mice
Protocol: (§1) FIGS. 4A-4H. Pharmacokinetics and anti-tumor growth activity of AOH1996 in vivo. FIG. 4A: After oral administration, the plasma concentrations of AOH1996 from three male and three female ES1^e/SCID mice at the indicated time points were averaged and graphed ±S.D. The inset contains PK parameters determined by a standard noncompartmental method. FIG. 4B: A similar PK study of AOH1996 was performed in dogs. FIGS. 4C-4E: Mice bearing the xenograft tumors of neuroblastoma (FIG. 4C: SK-N-BE(2)c), breast cancer (FIG. 4D: MDA-MB-468), and small-cell lung cancer (FIG. 4E: H82) were given vehicle only (black) or 40 mg/kg of AOH1996 (grey) twice daily immediately after the first measurement. Tumor sizes were measured by a dial caliper each week. Tumor volumes (0.4×L×W^2) were averaged and graphed ±S.E. (*, P<0.01). FIG. 4F: Animal body weight was monitored throughout the studies as an indicator of toxicity. Shown is a typical study results from the study of the SK-N-BE(2)c tumor model described in (FIG. 4C). FIG. 4G: The levels of phosphor-Chk1 (pChk1) and γH2A.X in SK-N-BE(2)c derived tumor samples were analyzed by IHC. Shown are representative images taken from tumors treated by vehicle only or by 40 mg/kg AOH1996. FIG. 4H: ES1^e/SCID mice bearing SK-N-AS derived xenograft tumors were treated with either 80 mg/kg of AOH1996 (black, n=7) for 8 d beginning 8 d after tumor implantation, 15 mg/kg of CPT-11 (n=8) for 3 d beginning 12 d after tumor implantation, or both agents (combination, n=8) under the same dosages and schedules as they were dosed alone. Mice implanted with the same tumor and left untreated were used as control (n=8). Shown are the survival graphs. The p values determined by the Log-rank (Mantel-Cox) test between combination treatment and each of the control groups are p=0.0003 (Combination vs. NoRx), p=0.005 (Combination vs. AOH1996 alone), and p=0.024 (Combination vs. CPT-11 alone).
The improved stability of AOH1996 (FIGS. 12A-12E) translated into a significant benefit in the pharmacokinetics (PK).
Pharmacokinetic (PK) study in animals. An oral dosing solution was prepared by dissolving AOH1996 (40 mg) in a mixture of Kolliphor EL (840 mg) and Poloxamer P124 (120 mg). For the mouse study, blood samples were collected from ES1^e/SCID mice (3 male and 3 female) per dosing group by cardiac puncture at 10, 20, and 30 min and 1, 2, 4, 6, and 24 h after dosing. For the dog study, blood samples were collected from 3 male beagle dogs per dosing group by venipuncture of peripheral veins at 5, 15, and 30 min and 1, 2, 4, 8, 12, and 24 h after dosing. Following removal of blood cells, plasma concentration of AOH1996 was determined by LC-MS/MS as described (Gu et al., 2018). Oral PK was determined using standard non-compartmental methods.

[2] = Oral pharmacokinetic study in dogs; assay type: in vivo, beagle dogs
Protocol: FIGS. 4A-4H. Pharmacokinetics and anti-tumor growth activity of AOH1996 in vivo. FIG. 4A: After oral administration, the plasma concentrations of AOH1996 from three male and three female ES1^e/SCID mice at the indicated time points were averaged and graphed ±S.D. The inset contains PK parameters determined by a standard noncompartmental method. FIG. 4B: A similar PK study of AOH1996 was performed in dogs. FIGS. 4C-4E: Mice bearing the xenograft tumors of neuroblastoma (FIG. 4C: SK-N-BE(2)c), breast cancer (FIG. 4D: MDA-MB-468), and small-cell lung cancer (FIG. 4E: H82) were given vehicle only (black) or 40 mg/kg of AOH1996 (grey) twice daily immediately after the first measurement. Tumor sizes were measured by a dial caliper each week. […] FIG. 4F: Animal body weight was monitored throughout the studies as an indicator of toxicity. […] FIG. 4G: The levels of phosphor-Chk1 (pChk1) and γH2A.X in SK-N-BE(2)c derived tumor samples were analyzed by IHC. […] The p values determined by the Log-rank (Mantel-Cox) test between combination treatment and each of the control groups are p=0.0003 (Combination vs. NoRx), p=0.005 (Combination vs. AOH1996 alone), and p=0.024 (Combination vs. CPT-11 alone).
Pharmacokinetic (PK) study in animals. […] Following removal of blood cells, plasma concentration of AOH1996 was determined by LC-MS/MS as described (Gu et al., 2018). […]

[3] = tested on: SK-N-BE(2)c xenograft tumors; assay: Xenograft tumor model, neuroblastoma; assay type: in vivo, mice
Protocol: as §1, with “Mice implanted with the same tumor and left untreated were used as control (n=8). Shown are the survival graphs.” left out
In vivo tumor model. […] Tumor size and animal weight were measured weekly. At the end of the experiment, tumors were isolated from sacrificed mice and analyzed by immunohistochemistry staining with antibodies specific for phosphor-Chk1 and γH2A.X.

[4] = tested on: SK-N-AS cells homozygous of the Y418A mutant RPB1 alleles; assay: Growth of RPB1 Y418A (APIM) mutant cell lines; assay type: cell-based, human; conditions: 72 hrs; vs parent SK-N-AS

COc1cccc(Oc2ccccc2NC(=O)CNC(=O)c2cccc3ccccc23)c1 [AOH1996, N-(2-((2-(3-methoxyphenoxy)phenyl)amino)-2-oxoethyl)-1-naphthamide]
change in cell-cycle profile (SH-SY5Y and SK-N-BE(2)c): G2/M and/or S phase arrest in cancer cells | half-life ([1]; 40 mg/kg, mice): 4.33 h | increase in area under curve (AUC) vs AOH1160 ([1]; 40 mg/kg, mice): ~4% | increase in half-life vs AOH1160 ([1]; 40 mg/kg, mice): ~27% | increase in peak concentration (Cmax) vs AOH1160 ([1]; 40 mg/kg, mice): ~40% | absorption into circulation ([1]; animals, data not shown): ~90% | PK parameters in dogs [2]: Comparable PK parameters | pharmacodynamics markers in tumors (immunohistochemistry) ([3]; 40 mg/kg AOH1996 vs vehicle): Focal staining of γH2A.X and phospho-Chk1 were observed | tumor burden ([3]; 40 mg/kg twice daily, oral, vs vehicle): significantly reduced tumor burden | death, body weight ([3]; xenograft studies, 40 mg/kg twice daily): did not cause any death or significant weight loss | sensitivity of RPB1 Y418A mutant cells to growth inhibition [4]: significantly less sensitive to growth inhibition by AOH1996 than the parent cells
